Tested on: Lewis strain laboratory rats
Experiment: In vivo alleviation of inflammation: polyarthritis (adjuvant, Mycobacterium butyricum) in rats, inhibition of paw volume increase
Conditions: po, rat; for inhibition in vivo at 10 mg/kg / inhibition in vivo at 25 mg/kg / inhibition in vivo at 15 mg/kg / inhibition in vivo at 50 mg/kg / inhibition in vivo at 40 mg/kg / inhibition in vivo at 30 mg/kg: 336 h, read-out: % INH. p.o. (percentage inhibition of pad swelling); for inhibition in vivo at 10 mg/kg: 10 mpk p.o.; for inhibition in vivo at 25 mg/kg: 25 mpk p.o.; for inhibition in vivo at 15 mg/kg: 15 mpk p.o.; for inhibition in vivo at 50 mg/kg: 50 mpk p.o.; for inhibition in vivo at 40 mg/kg: 40 mpk p.o.; for ED50: Rattus norvegicus, read-out: ED50 (effective dose to obtain a 50% inhibition of inflammation); for inhibition in vivo at 30 mg/kg: 30 mpk p.o.
Method: Polyarthritis was induced in Lewis strain laboratory rats (weight=about 200 grams) by injection of a suspension of Mycobacterium butyricum in mineral oil into the subplantar tissue of the mammal's hind paws. On day 10 after the injection, the rats were assigned to groups, and paw volumes and body weights were recorded. Paw volumes of the contralateral, uninjected hind paw were determined by mercury plethylsmography. Per oral (p.o.) dosing began and continued for five consecutive days thereafter. On day 14 after the initial injection, approximately four hours after the final dose was administered, paw volumes and body weights were recorded and quantitated.
Anti-inflammatory activity of the substituted pyrazole compounds is expressed as the percent inhibition of paw volume increase.

## COc1ccc(-n2nc(CCCN(O)C(C)=O)cc2-c2ccc(Cl)cc2)cc1 [Compound 152, N-[3-[5-(4-Chlorophenyl)-1-(4-methoxyphenyl)-3-pyrazolyl]propyl]-N-hydroxy-acetamide]
  inhibition in vivo at 10 mg/kg: 40%

## OCCCc1cc(-c2ccc(Cl)cc2)n(-c2ccccc2C(F)(F)F)n1 [Compound 60]
  inhibition in vivo at 25 mg/kg: 8%

## CCCCCCCCNC(=O)CCc1cc(-c2ccc(Cl)cc2)n(-c2ccc(OC)cc2)n1 [Compound 186]
  inhibition in vivo at 10 mg/kg: 37%

## COc1ccc(-n2nc(CCC(=O)O)c(Cl)c2-c2ccc(Cl)cc2)cc1 [Compound 182]
  inhibition in vivo at 15 mg/kg: 71%

## COc1ccc(-n2nc(CCC(=O)N(C)OC(=O)CCCC(=O)O)cc2-c2ccc(Cl)cc2)cc1 [Compound 132]
  inhibition in vivo at 10 mg/kg: 30%

## COc1ccc(-n2nc(CCC(=O)O)cc2-c2ccccc2C)cc1 [Compound 109]
  inhibition in vivo at 10 mg/kg: 1%

## COc1ccc(-n2nc(CCC(=O)N(OC(C)=O)C(C)=O)cc2-c2ccc(Cl)cc2)cc1 [Compound 172, N-Acetyl-N-acetoxy-[5-(4-chlorophenyl)-1-(4-methoxyphenyl)-3-pyrazolyl]-propanamide]
  inhibition in vivo at 15 mg/kg: 83%

## COc1ccc(-n2nc(CCCO)cc2-c2ccccc2)cc1 [Compound 10]
  inhibition in vivo at 50 mg/kg: 30%

## CNOC(=O)CCc1cc(-c2ccc(Cl)cc2)n(-c2ccc(OC)cc2)n1 [Compound 53, 0-[2-[5-(4-Chlorophenyl)-1-(4-methoxyphenyl)-3-pyrazolyl]ethyl-carbonyl]-N-methylhydroxylamine]
  inhibition in vivo at 40 mg/kg: 94%

## COC(=O)CCc1cc(-c2ccc(Cl)cc2)n(-c2ccc(OC)cc2)n1 [Compound 19, Methyl 3-[5-(4-chlorophenyl)-1-(4-methoxyphenyl)-3-pyrazolyl] propionate]
  inhibition in vivo at 40 mg/kg: 69%

## CCc1ccc(-c2cc(CCC(=O)O)nn2-c2ccc(OC)cc2)cc1 [Compound 110]
  inhibition in vivo at 10 mg/kg: 51%

## OCCCc1cc(-c2ccc(Cl)cc2)n(-c2ccc(Br)cc2)n1 [Compound 35, 1-(4-bromophenyl)-5-(4-chlorophenyl)-3-(3-hydroxypropyl) pyrazole]
  inhibition in vivo at 25 mg/kg: 65%

## CSc1ccc(-n2nc(CCCO)cc2-c2ccc(Cl)cc2)cc1 [Compound 47]
  inhibition in vivo at 25 mg/kg: 48%

## COc1ccc(-n2nc(CCCO)cc2-c2ccc(Cl)cc2)cc1 [Compound 2, 5-(4-Chlorophenyl)-3-(3-hydroxypropyl)-1-(4-methoxyphenyl) pyrazole]
  ED50: 3.6 mg/kg

## COc1ccc(-n2nc(CCCOC(=O)CCc3cc(-c4ccc(Cl)cc4)n(-c4ccc(OC)cc4)n3)cc2-c2ccc(Cl)cc2)cc1 [Compound 16, 3-[5-(4-Chlorophenyl)-1-(4-methoxyphenyl)-3-pyrazolyl] propyl 3-[5-(4-Chlorophenyl)-1-(4-methoxyphenyl)-3-pyrazolyl] propionate]
  inhibition in vivo at 25 mg/kg: 82%

## CCOC(=O)C(=O)NCCc1cc(-c2ccc(Cl)cc2)n(-c2ccc(OC)cc2)n1 [Compound 160, Ethyl 2-[5-(4-chlorophenyl)-1-(4-methoxyphenyl)-3-pyrazolyl]-ethylamine-N-oxoacetate]
  inhibition in vivo at 15 mg/kg: 9%

## COc1ccc(-n2nc(CCC(=O)N(C)O)cc2-c2cccc(C)c2)cc1 [Compound 115]
  inhibition in vivo at 10 mg/kg: 35%

## OCCCc1cc(-c2ccc(Cl)cc2)n(-c2ccc(F)cc2)n1 [Compound 62]
  inhibition in vivo at 50 mg/kg: 31%

## COc1ccc(-n2nc(CCC(=O)O)cc2-c2cccc(C)c2)cc1 [Compound 106]
  inhibition in vivo at 10 mg/kg: 11%

## COc1ccc(-n2nc(CCC(=O)N(C)O)cc2-c2ccc(C)cc2)cc1 [Compound 111]
  inhibition in vivo at 15 mg/kg: 75%

## COCCCc1cc(-c2ccc(Cl)cc2)n(-c2ccc(OC)cc2)n1 [Compound 24, 3-[5-(4-Chlorophenyl)-1-(4-methoxyphenyl)-3-pyrazolyl] propyl methyl ether]
  inhibition in vivo at 25 mg/kg: 64%

## COc1ccc(-n2nc(CCCO)cc2-c2ccc(C)cc2)cc1 [Compound 55, 3-(3-hydroxypropyl)-1-(4-methoxyphenyl)-5-(4-tolyl)pyrazole]
  ED50: 3.9 mg/kg

## OCCCc1cc(-c2ccc(Cl)cc2)n(-c2ccccc2)n1 [Compound 1]
  inhibition in vivo at 50 mg/kg: 62%

## COc1ccc(-n2nc(CCC(=O)N(O)C(C)C(=O)O)cc2-c2ccc(Cl)cc2)cc1 (stereo not drawn) [Compound 145]
  inhibition in vivo at 10 mg/kg: 61%

## COc1ccc(-n2nc(CC/C=C\CCCC(N)=O)cc2-c2ccc(Cl)cc2)cc1 [Compound 38]
  inhibition in vivo at 40 mg/kg: 40%

## COc1ccc(-n2nc(CCC(=O)NCC(=O)N(C)O)cc2-c2ccc(Cl)cc2)cc1 [Compound 89]
  inhibition in vivo at 15 mg/kg: 57%

## COc1ccc(-n2nc(CCC(=O)N(C)OC(C)=O)cc2-c2ccc(Cl)cc2)cc1 [Compound 140]
  inhibition in vivo at 15 mg/kg: 77%

## COc1ccc(-n2nc(CCC(=O)N(C)OC(=O)CCl)cc2-c2ccc(Cl)cc2)cc1 [Compound 139, 3-[5-(4-Chlorophenyl)-1-(4-methoxyphenyl)-3-pyrazolyl]N-chloroacetyloxy-N-methylpropanamide]
  ED50: 6 mg/kg

## COc1ccc(-n2nc(CCC(=O)N(O)C(C)=O)cc2-c2ccc(Cl)cc2)cc1 [Compound 171, N-Acetyl-3-[5-(4-chlorophenyl)-1-(4-methoxyphenyl)-3-pyrazolyl]-N-hydroxy-propanamide]
  inhibition in vivo at 10 mg/kg: 62%

## COc1ccc(-n2nc(CCC(=O)N(O)C(C)(C)C)cc2-c2ccc(Cl)cc2)cc1 [Compound 58, 3-[5-(4-chlorophenyl)-1-(4-methoxyphenyl)-3-pyrazolyl]-N-tert-butyl-N-hydroxypropanamide]
  inhibition in vivo at 25 mg/kg: 47%

## COc1ccc(-n2nc(CCC(=O)N(C)OC(=O)CCC(=O)N3CCOCC3)cc2-c2ccc(Cl)cc2)cc1 [Compound 136]
  inhibition in vivo at 10 mg/kg: 38%

## CCOC(=O)C(=O)N(O)CCCc1cc(-c2ccc(Cl)cc2)n(-c2ccc(OC)cc2)n1 [Compound 157, Ethyl N-[3-[5-(4-chlorophenyl)-1-(4-methoxyphenyl)-3-pyrazolyl]-propyl]-hydroxyoxamate]
  inhibition in vivo at 10 mg/kg: 51%

## CCCCCOc1ccc(-n2nc(CCCO)cc2-c2ccc(Cl)cc2)cc1 [Compound 51]
  inhibition in vivo at 30 mg/kg: 6.4%

## CCN(CC)C(=O)CCC(=O)ON(C)C(=O)CCc1cc(-c2ccc(Cl)cc2)n(-c2ccc(OC)cc2)n1 [Compound 137]
  inhibition in vivo at 10 mg/kg: 54%

## OCCCc1cc(-c2ccc(Cl)cc2)n(-c2ccc(Cl)cc2)n1 [Compound 4]
  inhibition in vivo at 50 mg/kg: 68%

## O=[N+]([O-])c1ccc(-n2nc(CCCO)cc2-c2ccc(Cl)cc2)cc1 [Compound 48]
  inhibition in vivo at 40 mg/kg: 40%

## COc1ccccc1-n1nc(CCC(=O)O)cc1-c1ccc(Cl)cc1 [Compound 103]
  inhibition in vivo at 10 mg/kg: 55%

## COc1ccc(-n2nc(CCC(=O)N(C)O)c(Br)c2-c2ccc(Cl)cc2)cc1 [Compound 148]
  inhibition in vivo at 40 mg/kg: 15%

## COc1ccc(-n2nc(CCC(=O)N(C)O)c(Cl)c2-c2ccc(Cl)cc2)cc1 [Compound 149]
  inhibition in vivo at 15 mg/kg: 68%

## CCOC(=O)CNC(=O)CCc1cc(-c2ccc(Cl)cc2)n(-c2ccc(OC)cc2)n1 [Compound 87]
  inhibition in vivo at 15 mg/kg: 22%

## CS(=O)(=O)c1ccc(-n2nc(CCCO)cc2-c2ccc(Cl)cc2)cc1 [Compound 36]
  inhibition in vivo at 50 mg/kg: 40%

## COc1ccc(-n2nc(CCCN)cc2-c2ccc(Cl)cc2)cc1 [Compound 96, 3-[5-(4-Chlorophenyl)-1-(4-methoxyphenyl)-3-pyrazolyl]propylamine]
  inhibition in vivo at 30 mg/kg: 56%
